Results as given in patent US10829778B2, “Plants having increased tolerance to herbicides” (BASF SE, priority 2013, dated 2020).

Columns and labels:
Test in all cases: HPPD activity assay, mutant enzyme
Assay type in all cases: biochemical
HvHPPD G407C (SEQ ID: 2) = target: T1, HvHPPD G407C (SEQ ID: 2) (Hordeum vulgare, UniProt O48604, A164G/G407C/R146V/R147D/R148G); details: Table 16, normalized to Hordeum wild-type
T1 construct: His tag (N); made in house; host or cells: E. coli BL21 (DE3)
Experimental: (§1) HPPD produces homogentisic acid and CO2 from 4-hydroxyphenylpyruvate (4-HPP) and O2. The activity assay for HPPD is based on the analysis of homogentisic acid by reversed phase HPLC.
(§2) The assay mixture can contain 150 mM potassium phosphate buffer pH 7.0, 50 mM L-ascorbic acid, 100 μM Catalase (Sigma-Aldrich), 1 μM FeSO4 and 0.2 units of purified HPPD enzyme in a total volume of 505 μl. 1 unit is defined as the amount of enzyme that is required to produce 1 nmol of HGA per minute at 20° C.
(§3) After a preincubation of 30 min the reaction is started by adding 4-HPP to a final concentration of 0.05 mM. The reaction is allowed to proceed for 45 min at room temperature. The reaction is stopped by the addition of 50 μl of 4.5 M phosphoric acid. The sample is filtered using a […] pore size PVDF filtration device.
(§4) 5 μl of the cleared sample is analyzed on an UPLC HSS T3 column (particle size 1.8 μm, dimensions 2.1×50 mm; Waters) by isocratic elution using 90% 20 mM NaH2PO4 pH 2.2, 10% methanol (v/v).
(§5) HGA is detected electrochemically at 750 mV (mode: DC; polarity: positive) and quantified by integrating peak areas (Empower software; Waters).
(§6) Inhibitors are dissolved in DMSO (dimethylsulfoxide) to a concentration of 0.5 mM. From this stock solution serial five-fold dilutions are prepared in DMSO, which are used in the assay. The respective inhibitor solution accounts for 1% of the assay volume. […] Activities are normalized by setting the uninhibited enzyme activity to 100%. IC50 values are calculated using non-linear regression.
(§7) Purified, mutant HPPD enzymes are obtained by the methods described above. Dose response and kinetic measurements are carried out using the described HPPD activity assay. Apparent michaelis constants (Km) and maximal reaction velocities (Vmax) are calculated by non-linear regression with the software GraphPad Prism 5 (GraphPad Software, La Jolla, USA) using a substrate inhibition model. […] Weighted means (by standard error) of Km and IC50 values are calculated from at least three independent experiments.
(§8) Field performance of the optimized HPPD enzyme, which is used as a herbicide tolerance trait may depend not only on its lack of sensitivity towards HPPD inhibiting herbicides but also on its activity. To assess the potential performance of a herbicide tolerance trait a tolerance index (TI) is calculated using the following formula: […]
(§9) Easy comparison and ranking of each trait is enabled by normalizing tolerance indexes on Arabidopsis or Hordeum wild-type HPPD.

[1] = target: T2, Hordeum HPPD (SEQ ID: 2) R309K (Hordeum vulgare, UniProt O48604, A164G/R146V/R147D/R148G/R309K); details: Table 16, normalized to Hordeum wild-type
T2 construct: His tag (N); made in house; host or cells: E. coli BL21 (DE3)
Experimental: as §1, §2, §3, §4, §5, §6, §7, §8, §9

[2] = target: T3, Arabidopsis HPPD (SEQ ID: 53) F381L (Arabidopsis thaliana, UniProt P93836, F381L); details: Table 15, normalized to Arabidopsis wild-type
T3 construct: PCR-based site directed mutagenesis of pEXP5-NT/TOPO®-AtHPPD; His6 (N); made in house; host or cells: E. coli BL21 (DE3)
Experimental: as §1, §2, §3, §4, §5, §6, §7, §8, §9

[3] = target: T4, Hordeum HPPD (SEQ ID: 2) I416V (Hordeum vulgare, UniProt O48604, A164G/I416V/R146V/R147D/R148G); details: Table 16, normalized to Hordeum wild-type
T4 construct: His tag (N); made in house; host or cells: E. coli BL21 (DE3)
Experimental: as §1, §2, §3, §4, §5, §6, §7, §8, §9

[4] = target: T5, Hordeum HPPD (SEQ ID: 2) L250M (Hordeum vulgare, UniProt O48604, A164G/L250M/R146V/R147D/R148G); details: Table 16, normalized to Hordeum wild-type
T5 construct: His tag (N); made in house; host or cells: E. coli BL21 (DE3)
Experimental: as §1, §2, §3, §4, §5, §6, §7, §8, §9

[5] = target: T6, HvHPPD L353M, P321R, L320Q (SEQ ID: 2) (Hordeum vulgare, UniProt O48604, L320Q/L353M/P321R); details: Table 16, normalized to Hordeum wild-type
T6 construct: His tag (N); made in house; host or cells: E. coli BL21 (DE3)
Experimental: as §1, §2, §3, §4, §5, §6, §7, §8, §9

[6] = target: T7, Arabidopsis HPPD (SEQ ID: 53) F381I (Arabidopsis thaliana, UniProt P93836, F381I); details: Table 15, normalized to Arabidopsis wild-type
T7 construct: PCR-based site directed mutagenesis of pEXP5-NT/TOPO®-AtHPPD; His6 (N); made in house; host or cells: E. coli BL21 (DE3)
Experimental: as §1, §2, §3, §4, §5, §6, §7, §8, §9

[7] = target: T8, Hordeum HPPD (SEQ ID: 2) F404L (Hordeum vulgare, UniProt O48604, A164G/F404L/R146V/R147D/R148G); details: Table 16, normalized to Hordeum wild-type
T8 construct: His tag (N); made in house; host or cells: E. coli BL21 (DE3)
Experimental: as §1, §2, §3, §4, §5, §6, §7, §8, §9

HvHPPD L320H (SEQ ID: 2) = target: T9, HvHPPD L320H (SEQ ID: 2) (Hordeum vulgare, UniProt O48604, A164G/L320H/R146V/R147D/R148G); details: Table 16, normalized to Hordeum wild-type
T9 construct: His tag (N); made in house; host or cells: E. coli BL21 (DE3)
Experimental: as §1, §2, §3, §4, §5, §6, §7, §8, §9

[8] = target: T10, Arabidopsis HPPD (SEQ ID: 53) M335H, P336A, E363Q (Arabidopsis thaliana, UniProt P93836, E363Q/M335H/P336A); details: Table 15, normalized to Arabidopsis wild-type
T10 construct: PCR-based site directed mutagenesis of pEXP5-NT/TOPO®-AtHPPD; His6 (N); made in house; host or cells: E. coli BL21 (DE3)
Experimental: as §1, §2, §3, §4, §5, §6, §7, §8, §9

[9] = target: T11, HvHPPD L320H, P321A (SEQ ID: 2) (Hordeum vulgare, UniProt O48604, L320H/P321A); details: Table 16, normalized to Hordeum wild-type
T11 construct: His tag (N); made in house; host or cells: E. coli BL21 (DE3)
Experimental: as §1, §2, §3, §4, §5, §6, §7, §8, §9

[10] = target: T12, Arabidopsis HPPD (SEQ ID: 53) M335H, P336A (Arabidopsis thaliana, UniProt P93836, M335H/P336A); details: Table 15, normalized to Arabidopsis wild-type
T12 construct: PCR-based site directed mutagenesis of pEXP5-NT/TOPO®-AtHPPD; His6 (N); made in house; host or cells: E. coli BL21 (DE3)
Experimental: as §1, §2, §3, §4, §5, §6, §7, §8, §9

[11] = target: T13, Arabidopsis HPPD (SEQ ID: 53) M335H, P336G (Arabidopsis thaliana, UniProt P93836, M335H/P336G); details: Table 15, normalized to Arabidopsis wild-type
T13 construct: PCR-based site directed mutagenesis of pEXP5-NT/TOPO®-AtHPPD; His6 (N); made in house; host or cells: E. coli BL21 (DE3)
Experimental: as §1, §2, §3, §4, §5, §6, §7, §8, §9

HvHPPD L320Q (SEQ ID: 2) = target: T14, HvHPPD L320Q (SEQ ID: 2) (Hordeum vulgare, UniProt O48604, A164G/L320Q/R146V/R147D/R148G); details: Table 16, normalized to Hordeum wild-type
T14 construct: His tag (N); made in house; host or cells: E. coli BL21 (DE3)
Experimental: as §1, §2, §3, §4, §5, §6, §7, §8, §9

T8 sequence (O48604 whole entry R146V/R147D/R148G/A164G/F404L): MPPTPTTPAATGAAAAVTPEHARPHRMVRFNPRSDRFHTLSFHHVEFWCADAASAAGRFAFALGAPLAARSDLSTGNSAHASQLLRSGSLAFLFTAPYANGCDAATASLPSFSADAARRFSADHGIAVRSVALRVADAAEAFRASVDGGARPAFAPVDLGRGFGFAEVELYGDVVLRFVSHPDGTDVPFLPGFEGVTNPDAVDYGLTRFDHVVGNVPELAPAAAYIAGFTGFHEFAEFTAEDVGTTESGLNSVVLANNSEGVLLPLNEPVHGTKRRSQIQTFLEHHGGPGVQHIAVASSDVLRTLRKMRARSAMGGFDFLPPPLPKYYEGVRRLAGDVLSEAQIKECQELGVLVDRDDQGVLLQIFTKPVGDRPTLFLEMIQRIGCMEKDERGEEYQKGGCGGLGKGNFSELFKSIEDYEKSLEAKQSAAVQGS
T14 sequence (O48604 whole entry R146V/R147D/R148G/A164G/L320Q): as the sequence (O48604 whole entry R146V/R147D/R148G/A164G/F404L) above, with L320Q, L404F counted along it
T5 sequence (O48604 whole entry R146V/R147D/R148G/A164G/L250M): as the sequence (O48604 whole entry R146V/R147D/R148G/A164G/F404L) above, with L250M, L404F counted along it
T4 sequence (O48604 whole entry R146V/R147D/R148G/A164G/I416V): as the sequence (O48604 whole entry R146V/R147D/R148G/A164G/F404L) above, with L404F, I416V counted along it
T7 sequence (P93836 whole entry F381I): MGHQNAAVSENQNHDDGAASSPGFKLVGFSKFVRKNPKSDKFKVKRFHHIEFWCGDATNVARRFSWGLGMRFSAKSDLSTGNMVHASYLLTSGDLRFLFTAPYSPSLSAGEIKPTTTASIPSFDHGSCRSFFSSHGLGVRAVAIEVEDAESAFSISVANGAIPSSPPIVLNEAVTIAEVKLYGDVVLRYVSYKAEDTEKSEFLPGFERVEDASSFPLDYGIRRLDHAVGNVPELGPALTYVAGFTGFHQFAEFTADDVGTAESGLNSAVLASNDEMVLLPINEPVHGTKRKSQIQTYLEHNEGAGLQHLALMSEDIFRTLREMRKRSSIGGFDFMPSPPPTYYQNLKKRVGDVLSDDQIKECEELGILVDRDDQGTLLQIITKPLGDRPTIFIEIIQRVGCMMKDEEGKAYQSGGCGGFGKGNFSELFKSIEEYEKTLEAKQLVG
T11 sequence (O48604 whole entry R146V/R147D/R148G/A164G/L320H/P321A): as the sequence (O48604 whole entry R146V/R147D/R148G/A164G/F404L) above, with L320H, P321A, L404F counted along it
T9 sequence (O48604 whole entry R146V/R147D/R148G/A164G/L320H): as the sequence (O48604 whole entry R146V/R147D/R148G/A164G/F404L) above, with L320H, L404F counted along it
T13 sequence (P93836 whole entry M335H/P336G): as the sequence (P93836 whole entry F381I) above, with M335H, P336G, I381F counted along it
T1 sequence (O48604 whole entry R146V/R147D/R148G/A164G/G407C): as the sequence (O48604 whole entry R146V/R147D/R148G/A164G/F404L) above, with L404F, G407C counted along it
T2 sequence (O48604 whole entry R146V/R147D/R148G/A164G/R309K): as the sequence (O48604 whole entry R146V/R147D/R148G/A164G/F404L) above, with R309K, L404F counted along it
T10 sequence (P93836 whole entry M335H/P336A/E363Q): as the sequence (P93836 whole entry F381I) above, with M335H, P336A, E363Q, I381F counted along it
T3 sequence (P93836 whole entry F381L): as the sequence (P93836 whole entry F381I) above, with I381L counted along it
T6 sequence (O48604 whole entry R146V/R147D/R148G/A164G/L320Q/P321R/L353M): as the sequence (O48604 whole entry R146V/R147D/R148G/A164G/F404L) above, with L320Q, P321R, L353M, L404F counted along it
T12 sequence (P93836 whole entry M335H/P336A): as the sequence (P93836 whole entry F381I) above, with M335H, P336A, I381F counted along it

Cc1nonc1NC(=O)c1ccc(S(C)(=O)=O)c(S(C)(=O)=O)c1C [Inhibitor 1, 2-methyl-N-(4-methyl-1,2,5-oxadiazol-3-yl)-3,4-bis(methylsulfonyl)benzamide]
Normalized tolerance index TI Inhibitor 1 (HvHPPD G407C (SEQ ID: 2)): 5
Normalized tolerance index TI Inhibitor 1 [1]: 1.6
Normalized tolerance index TI Inhibitor 1 [2]: 35.2
Normalized tolerance index TI Inhibitor 1 [3]: 1.7
Normalized tolerance index TI Inhibitor 1 [4]: 2.1
Normalized tolerance index TI Inhibitor 1 [5]: 12.6
Normalized tolerance index TI Inhibitor 1 [6]: 37
Normalized tolerance index TI Inhibitor 1 [7]: 4.6
Normalized tolerance index TI Inhibitor 1 (HvHPPD L320H (SEQ ID: 2)): 4.4
Normalized tolerance index TI Inhibitor 1 [8]: 6.7
Normalized tolerance index TI Inhibitor 1 [9]: 5.3
Normalized tolerance index TI Inhibitor 1 [10]: 2.4
Normalized tolerance index TI Inhibitor 1 [11]: 3.6
Normalized tolerance index TI Inhibitor 1 (HvHPPD L320Q (SEQ ID: 2)): 1.1
